Experimental data reported in patent US20250339547A1, “MET BCL-XL INHIBITOR ANTIBODY-DRUG CONJUGATES AND METHODS OF USE THEREOF” (Novartis AG, priority 2022, published 2025).

Legend:
Format in all cases: cell-based
NCI-H441 = assay: Lung cancer cell line viability, single agent or 1:1 combination (CTG 120h), Example 7; settings: Homo sapiens, NCI-H441, 120 h, NCI-H441, CTG 120 h
Protocol: (§1) Cell lines were cultured in the media described above at 37° C. in a humidified atmosphere containing 5% CO2. Cells were seeded in 96 well clear bottom plates (96 well clear-bottom, white, Corning reference 3903) and exposed to the mAbs, mAbs mixture, ADCs or ADCs mixture as single agents or in 1:1 combination with Paclitaxel. When in 1:1 combination, both the combining partner (Paclitaxel) and the mAb, mAb mixture, ADC or ADC mixture were serially diluted (9 concentrations each, triplicates). Effect on cell viability was assessed after 5 days of incubation at 37° C./5% CO2 by quantification of cellular ATP levels using CellTiter-Glo reagent (Promega Ref: G7571) at 75 μL reagent/well. All the conditions were tested in triplicates. Luminescence was quantified on a multipurpose plate reader. IC50s were calculated using standard four-parametric curve fitting. IC50 is defined as the compound concentration at which the CTG signal is reduced to 50% of that measured for the control. Two independent experiments were performed (N1 and N2).

HCC78 = assay: as above; settings: Homo sapiens, HCC78, 120 h, HCC78, CTG 120 h
Protocol: as §1

NCI-H1975 = assay: as above; settings: Homo sapiens, NCI-H1975, 120 h, NCI-H1975, CTG 120 h
Protocol: as §1

CALU1 = assay: as above; settings: Homo sapiens, Calu-1, 120 h, CALU1, CTG 120 h
Protocol: as §1

HCC366 = assay: as above; settings: HCC366, 120 h, HCC366, CTG 120 h
Protocol: as §1

NCI-H1838 = assay: as above; settings: Homo sapiens, NCI-H1838, 120 h, NCI-H1838, CTG 120 h
Protocol: as §1

HCC827 = assay: as above; settings: Homo sapiens, HCC827, 120 h, HCC827, CTG 120 h
Protocol: as §1

HCC4006 = assay: as above; settings: Homo sapiens, HCC4006, 120 h, HCC4006, CTG 120 h
Protocol: as §1

LU65 = assay: as above; settings: Homo sapiens, Lu-65, 120 h, LU65, CTG 120 h
Protocol: as §1

AsPC-1 = assay: Pancreatic cancer cell line viability, single agent or 1:1 combination (CTG 120h), Example 10; settings: Homo sapiens, ASPC1, 120 h, AsPC-1, CTG 120 h
Protocol: (§2) Cell lines were cultured in the media described above at 37° C. in a humidified atmosphere containing 5% CO2. Cells were seeded in 96 well clear bottom plates (96 well clear-bottom, white, Corning reference 3903) and exposed to the mAbs or ADCs as single agents or in 1:1 combination with Paclitaxel, Trametinib or Gemcitabine. When in 1:1 combination, both the combining partner (Paclitaxel, Trametinib or Gemcitabine) and the mAb or ADC were serially diluted (9 concentrations each, triplicates). Effect on cell viability was assessed after 5 days of incubation at 37° C./5% CO2 by quantification of cellular ATP levels using CellTiter-Glo reagent (Promega Ref: G7571) at 75 μL reagent/well. All the conditions were tested in triplicates. Luminescence was quantified on a multipurpose plate reader. IC50s were calculated using standard four-parametric curve fitting. IC50 is defined as the compound concentration at which the CTG signal is reduced to 50% of that measured for the control. Two independent experiments were performed (N1 and N2).

Hs766T = assay: as above
Protocol: as §2

Panc 10.05 = assay: as above; settings: Homo sapiens, Panc1005, 120 h, Panc 10.05, CTG 120 h
Protocol: as §2

BxPC-3 = assay: as above; settings: Homo sapiens, BXPC-3, 120 h, BxPC-3, CTG 120 h
Protocol: as §2

KP-4 = assay: as above; settings: Homo sapiens, KP-4, 120 h, KP-4, CTG 120 h
Protocol: as §2

[1] = test system: HCC78 lung cancer cell line; assay: HCC78 viability, single agent or 1:1 combination with Paclitaxel (CTG 120h), Example 8; settings: for effect on the viability: HCC-78, single agents, FIG. 3
Protocol: HCC78 lung cancer cell line was cultured in the media described above at 37° C. in a humidified atmosphere containing 5% CO2. Cells were seeded in 96 well clear bottom plates (96 well clear-bottom, white, Corning reference 3903) and exposed to the mAbs or ADCs as single agents or in 1:1 combination with Paclitaxel. When in 1:1 combination, both Paclitaxel and the mAb or ADC were serially diluted (9 concentrations each, triplicates). Effect on cell viability was assessed after 5 days of incubation at 37° C./5% CO2 by quantification of cellular ATP levels using CellTiter-Glo reagent (Promega Ref: G7571) at 75 μL reagent/well. All the conditions were tested in triplicates. Luminescence was quantified on a multipurpose plate reader. IC50s were calculated using standard four-parametric curve fitting. IC50 is defined as the compound concentration at which the CTG signal is reduced to 50% of that measured for the control. Two independent experiments were performed (N1 and N2).

Compound: Cc1c(Nc2nc3ccccc3s2)nnc2c1CCCN2c1ccc(-c2cnn(C[C@]34C[C@]5(C)C[C@](C)(C3)C[C@@](OCCNCCCO)(C5)C4)c2C)c(C(=O)O)n1 [P25, 6-[3-(1,3-benzothiazol-2-ylamino)-4-methyl-6,7-dihydro-5H-pyrido[2,3-c]pyridazin-8-yl]-3-[1-[[3-[2-(3-hydroxypropylamino)ethoxy]-5,7-dimethyl-1-adamantyl]methyl]-5-methyl-pyrazol-4-yl]pyridine-2-carboxylic acid]
- IC50 (NCI-H441; Mean): 1020 nM
- IC50 (NCI-H441; n1): 1010 nM
- IC50 (NCI-H441; n2): 1030 nM
- IC50 (HCC78; Mean): 2260 nM
- IC50 (HCC78; n1): 3220 nM
- IC50 (HCC78; n2): 1310 nM
- IC50 (NCI-H1975; Mean): 9030 nM
- IC50 (NCI-H1975; n1): 9030 nM
- IC50 (NCI-H1975; n2): > 10000 nM
- IC50 (CALU1; Mean): 14.6 nM
- IC50 (CALU1; n1): 1.78 nM
- IC50 (CALU1; n2): 14.6 nM
- IC50 (HCC366; Mean): 29.4 nM
- IC50 (HCC366; n1): 14.9 nM
- IC50 (HCC366; n2): 43.8 nM
- IC50 (NCI-H1838; Mean): 34 nM
- IC50 (NCI-H1838; n1): 41.4 nM
- IC50 (NCI-H1838; n2): 26.7 nM
- IC50 (HCC827; Mean): 108 nM
- IC50 (HCC827; n1): 57.4 nM
- IC50 (HCC827; n2): 158 nM
- IC50 (HCC4006; Mean): 7460 nM
- IC50 (HCC4006; n1): 7460 nM
- IC50 (HCC4006; n2): > 10000 nM
- IC50 (LU65; Mean): > 10000 nM
- IC50 (LU65; n1): 5610 nM
- IC50 (LU65; n2): > 10000 nM
- IC50 (AsPC-1; mean): 244 nM
- IC50 (AsPC-1; n1): 368 nM
- IC50 (AsPC-1; n2): 121 nM
- IC50 (Hs766T; mean): 1640 nM
- IC50 (Hs766T; n1): 1900 nM
- IC50 (Hs766T; n2): 1370 nM
- IC50 (Panc 10.05; mean): 73.5 nM
- IC50 (Panc 10.05; n1): 61.6 nM
- IC50 (Panc 10.05; n2): 85.3 nM
- IC50 (BxPC-3; mean): 21.8 µM
- IC50 (BxPC-3; n1): 20.8 µM
- IC50 (BxPC-3; n2): 22.8 µM
- IC50 (KP-4; mean): 16.9 µM
- IC50 (KP-4; n1): 14.7 µM
- IC50 (KP-4; n2): 19.2 µM
- effect on the viability [1]: induced a dose dependent decrease in the viability

Compound: CC(=O)O[C@H]1C(=O)[C@@]2(C)[C@H]([C@H](OC(=O)c3ccccc3)[C@]3(O)C[C@H](OC(=O)[C@H](O)[C@@H](NC(=O)c4ccccc4)c4ccccc4)C(C)=C1C3(C)C)[C@]1(OC(C)=O)CO[C@@H]1C[C@@H]2O [Paclitaxel, paclitaxel]
- IC50 (NCI-H441; Mean): 6.48 nM
- IC50 (NCI-H441; n1): 9.2 nM
- IC50 (NCI-H441; n2): 3.75 nM
- IC50 (HCC78; Mean): 3.4 nM
- IC50 (HCC78; n1): 2.52 nM
- IC50 (HCC78; n2): 4.29 nM
- IC50 (NCI-H1975; Mean): 2.53 nM
- IC50 (NCI-H1975; n1): 3.34 nM
- IC50 (NCI-H1975; n2): 1.72 nM
- IC50 (CALU1; Mean): 25.6 nM
- IC50 (CALU1; n1): 13.7 nM
- IC50 (CALU1; n2): 37.4 nM
- IC50 (HCC366; Mean): 7.45 nM
- IC50 (HCC366; n1): 4 nM
- IC50 (HCC366; n2): 10.9 nM
- IC50 (NCI-H1838; Mean): > 300 nM
- IC50 (NCI-H1838; n1): > 300 nM
- IC50 (NCI-H1838; n2): > 300 nM
- IC50 (HCC827; Mean): 5.27 nM
- IC50 (HCC827; n1): 4.11 nM
- IC50 (HCC827; n2): 6.42 nM
- IC50 (HCC4006; Mean): 4.66 nM
- IC50 (HCC4006; n1): 5.9 nM
- IC50 (HCC4006; n2): 3.42 nM
- IC50 (LU65; Mean): 29.7 nM
- IC50 (LU65; n1): 32.4 nM
- IC50 (LU65; n2): 27 nM
- IC50 (AsPC-1; mean): 10.2 nM
- IC50 (AsPC-1; n1): 12.4 nM
- IC50 (AsPC-1; n2): 8.06 nM
- IC50 (Hs766T; mean): > 30000 nM
- IC50 (Hs766T; n2): > 30000 nM
- IC50 (Panc 10.05; mean): 7.93 nM
- IC50 (Panc 10.05; n1): 5.65 nM
- IC50 (Panc 10.05; n2): 10.2 nM
- IC50 (BxPC-3; mean): 0.00093 µM
- IC50 (BxPC-3; n1): 0.0006 µM
- IC50 (BxPC-3; n2): 0.00125 µM
- IC50 (KP-4; mean): 0.00233 µM
- IC50 (KP-4; n1): 0.00047 µM
- IC50 (KP-4; n2): 0.00419 µM
- Maximal effect on the viability (viability decrease) ([1]; HCC-78, FIG. 3): 80%
- effect on the viability [1]: induced a dose dependent decrease in the viability
